The source of these data is patent US20120270237A9, “METHODS FOR THE IDENTIFICATION OF KINASE INTERACTING MOLECULES AND FOR THE PURIFICATION OF KINASE PROTEINS” (Cellzone AG, priority 2009, published 2012).

Broadly, the inhibition is the change of the read-out against control, counted positive when it falls. Lower therefore signals little suppression.

This assay has as its target T1, MAP3K2 (Homo sapiens, UniProt Q9Y2U5).
T1 sequence (Q9Y2U5 1-619): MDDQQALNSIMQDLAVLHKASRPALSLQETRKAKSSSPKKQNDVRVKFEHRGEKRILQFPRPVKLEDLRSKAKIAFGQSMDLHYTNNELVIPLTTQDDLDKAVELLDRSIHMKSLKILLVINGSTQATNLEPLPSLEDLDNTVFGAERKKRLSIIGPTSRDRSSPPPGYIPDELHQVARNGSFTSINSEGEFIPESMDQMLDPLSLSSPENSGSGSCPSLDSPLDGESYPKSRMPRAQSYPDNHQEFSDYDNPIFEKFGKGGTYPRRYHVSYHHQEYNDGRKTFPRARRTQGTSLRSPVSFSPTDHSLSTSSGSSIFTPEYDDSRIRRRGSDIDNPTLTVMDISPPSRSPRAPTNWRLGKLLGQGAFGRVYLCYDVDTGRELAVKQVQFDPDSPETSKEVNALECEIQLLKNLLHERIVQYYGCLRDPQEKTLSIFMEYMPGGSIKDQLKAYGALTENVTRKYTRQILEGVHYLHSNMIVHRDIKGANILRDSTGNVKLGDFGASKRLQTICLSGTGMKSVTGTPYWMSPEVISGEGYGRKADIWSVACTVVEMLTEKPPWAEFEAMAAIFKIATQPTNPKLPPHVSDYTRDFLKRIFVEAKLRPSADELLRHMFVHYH
The assay is described as follows: Kinobeads competition binding, HL60 cell lysate. The arrangement: endogenous in cells; host or cells: HL60 cell lysate. The note with it: 10 μM free compound. The method, then:
To one aliquot of cell lysate 10 μM of the free compound (FIG. 3, CZC31326) was added and allowed to bind to proteins in the lysate. Then the affinity matrix with the immobilized compound (Example 1) was added to capture proteins that were not interacting with the previously added free compound. Beads were separated from the lysate and bead bound proteins were eluted in SDS sample buffer and subsequently separated by SDS-Polyacrylamide gel electrophoresis (FIG. 4). Suitable gel bands were cut out and subjected to in-gel proteolytic digestion with trypsin. The second lysate aliquot was processed identically, however no free compound was added (DMSO solvent control). Peptides originating from samples 1 and 2 were labeled with iTRAQ reagents (iTRAQ 114 and iTRAQ 117) and the combined samples were analyzed with a nano-flow liquid chromatography system coupled online to a tandem mass spectrometer (LC-MS/MS) experiment followed by iTRAQ reporter ion quantification in the MS/MS spectra (Ross et al., 2004. Mol. Cell. Proteomics 3(12):1154-1169). Further experimental protocols can be found in WO2006/134056 and a previous publication (Bantscheff et al., 2007. Nature Biotechnology 25, 1035-1044). Sepharose-beads with the immobilized compound (100 μl beads per pull-down experiment) were equilibrated in lysis buffer and incubated with a cell lysate sample containing 50 mg of protein on an end-over-end shaker (Roto Shake Genie, Scientific Industries Inc.) for 2 hours at 4° C. […] The iTRAQ reagents are a set of multiplexed, amine-specific, stable isotope reagents that can label peptides on amino groups in up to four different biological samples enabling simultaneous identification and quantitation of peptides. […] Relative protein quantitation was performed using peak areas of iTRAQ reporter ion signals essentially as described in an earlier publication (Bantscheff et al., 2007. Nature Biotechnology 25, 1035-1044).

SMILES strings stand for the structures.

In turn, `CS(=O)(=O)Nc1ccccc1Nc1nc(Nc2cccc(OCCN)c2)ncc1Cl` [CZC31326, N-(2-(2-(3-(2-aminoethoxy)phenylamino)-5-chloropyrimidin-4-ylamino)phenyl)methanesulfonamide] showed an inhibition at 10 µM of 96.3%.
